Source: patent US20260317344A1, “EGFR INHIBITORS FOR TREATING DISEASE” (BLOSSOMHILL THERAPEUTICS, INC., priority 2023, published 2026)

Legend:
[1] = target: T1, pEGFR, NCI-H1975 cells (L858R/T790M EGFR) (Homo sapiens, UniProt P00533, L858R/T790M); assay: Cellular EGFR phosphorylation assay (LANCE Ultra TR-FRET) in NCI-H1975 cells; type: cell-based; conditions: 4 hours at 37° C., read-out: H1975 pEGFR IC50
T1 construct: pEGFR (Tyr1068) TR-FRET
Procedure, shortened: (§1)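 Measured in intact cells exposed to compound for 4 hours, with A431 given EGF at 40 ng/mL for the closing 10 minutes; a TR-FRET antibody pair quantified phospho-Tyr1068 EGFR in lysates (4-6 h detection at room temperature), giving IC50.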

EGFR (L858R/T790M) = EGFR (L858R/T790M) (Homo sapiens, UniProt P00533, L858R/T790M); assay: HotSpot radiometric kinase assay, inhibition of EGFR L858R/T790M mutant; type: biochemical; conditions: 33P ATP, room temperature, 120 m
Procedure, shortened: (§2)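 Radiometric filter-binding format: ATP plus 33P-ATP ([…]) was added about 20 min after compound to kinase and substrate in HEPES pH 7.5 buffer with Mg2+, EGTA, Brij35, BSA, vanadate, DTT and 1% DMSO. After 120 min at room temperature, reactions were spotted on P81 paper and washed in phosphoric acid; IC50 values fitted.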

[2] = tested on: BaF3 cells with engineered EGFR L858R/C797S; assay: 3-Day CellTiter Glo (CTG) cell proliferation assay, BaF3 EGFR L858R/C797S; type: cell-based; conditions: Mus musculus, 3-day CTG proliferation, 72 hours
Procedure, shortened: (§3)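 Growth inhibition in transgene-bearing BaF3 lines was scored after three days of compound treatment by CellTiter-Glo 2.0 ATP luminescence, yielding IC50 values.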

[3] = tested on: BaF3 cells with engineered EGFR d746-750/T790M; assay: 3-Day CellTiter Glo (CTG) cell proliferation assay, BaF3 EGFR d746-750/T790M; type: cell-based; conditions: Mus musculus; BaF3 EGFR d746-750/T790M cells, 3-day CTG proliferation, 72 hours
Procedure, shortened: as §3

EGFR (D746-750/C797S) = EGFR (D746-750/C797S) (Homo sapiens, UniProt P00533, C797S/DEL746-750); assay: HotSpot radiometric kinase assay, inhibition of EGFR 746-750/C797S mutant; type: biochemical; conditions: 33P ATP, room temperature, 120 m
Procedure, shortened: as §2

EGFR (D746-750) = EGFR (D746-750) (Homo sapiens, UniProt P00533, DEL746-750); assay: HotSpot radiometric kinase assay, inhibition of EGFR 746-750 mutant; type: biochemical; conditions: 33P ATP, room temperature, 120 m
Sequence of EGFR (D746-750) (P00533 with tags, fused parts or gaps DEL746-750): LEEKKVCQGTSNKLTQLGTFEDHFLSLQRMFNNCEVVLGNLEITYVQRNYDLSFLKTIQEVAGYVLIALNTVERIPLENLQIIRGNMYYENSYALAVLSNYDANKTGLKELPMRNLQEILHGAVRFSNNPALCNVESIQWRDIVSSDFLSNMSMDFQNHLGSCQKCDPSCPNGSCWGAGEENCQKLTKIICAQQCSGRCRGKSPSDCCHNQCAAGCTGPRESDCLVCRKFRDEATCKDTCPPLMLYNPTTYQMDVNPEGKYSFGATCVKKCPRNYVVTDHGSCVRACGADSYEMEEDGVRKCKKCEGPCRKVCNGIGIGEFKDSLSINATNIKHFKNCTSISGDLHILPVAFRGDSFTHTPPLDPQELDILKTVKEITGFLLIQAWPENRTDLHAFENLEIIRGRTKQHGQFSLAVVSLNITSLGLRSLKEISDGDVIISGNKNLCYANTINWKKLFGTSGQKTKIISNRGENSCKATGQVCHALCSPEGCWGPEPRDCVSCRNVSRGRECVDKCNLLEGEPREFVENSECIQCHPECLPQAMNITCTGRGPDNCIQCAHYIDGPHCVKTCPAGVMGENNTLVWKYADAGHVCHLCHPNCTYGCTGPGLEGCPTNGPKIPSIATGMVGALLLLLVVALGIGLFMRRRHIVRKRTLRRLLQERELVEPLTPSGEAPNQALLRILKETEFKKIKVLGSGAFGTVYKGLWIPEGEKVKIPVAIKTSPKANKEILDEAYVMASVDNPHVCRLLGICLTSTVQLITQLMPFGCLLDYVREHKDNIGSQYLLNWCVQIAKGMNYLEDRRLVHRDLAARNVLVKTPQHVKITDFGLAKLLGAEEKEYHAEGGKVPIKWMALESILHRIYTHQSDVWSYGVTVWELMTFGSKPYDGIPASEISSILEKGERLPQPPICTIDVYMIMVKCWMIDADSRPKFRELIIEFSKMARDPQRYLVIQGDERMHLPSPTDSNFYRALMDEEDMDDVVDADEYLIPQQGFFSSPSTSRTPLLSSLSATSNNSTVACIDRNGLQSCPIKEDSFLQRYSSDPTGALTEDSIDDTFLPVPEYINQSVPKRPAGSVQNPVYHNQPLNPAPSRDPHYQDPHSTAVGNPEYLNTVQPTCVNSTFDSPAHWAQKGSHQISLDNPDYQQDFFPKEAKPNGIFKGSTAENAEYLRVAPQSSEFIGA
Procedure, shortened: as §2

EGFR WT = EGFR WT (Homo sapiens, UniProt P00533); assay: HotSpot radiometric kinase assay, inhibition of EGFR WT; type: biochemical; conditions: 33P ATP, room temperature, 120 m
Sequence of EGFR WT (P00533 25-1210): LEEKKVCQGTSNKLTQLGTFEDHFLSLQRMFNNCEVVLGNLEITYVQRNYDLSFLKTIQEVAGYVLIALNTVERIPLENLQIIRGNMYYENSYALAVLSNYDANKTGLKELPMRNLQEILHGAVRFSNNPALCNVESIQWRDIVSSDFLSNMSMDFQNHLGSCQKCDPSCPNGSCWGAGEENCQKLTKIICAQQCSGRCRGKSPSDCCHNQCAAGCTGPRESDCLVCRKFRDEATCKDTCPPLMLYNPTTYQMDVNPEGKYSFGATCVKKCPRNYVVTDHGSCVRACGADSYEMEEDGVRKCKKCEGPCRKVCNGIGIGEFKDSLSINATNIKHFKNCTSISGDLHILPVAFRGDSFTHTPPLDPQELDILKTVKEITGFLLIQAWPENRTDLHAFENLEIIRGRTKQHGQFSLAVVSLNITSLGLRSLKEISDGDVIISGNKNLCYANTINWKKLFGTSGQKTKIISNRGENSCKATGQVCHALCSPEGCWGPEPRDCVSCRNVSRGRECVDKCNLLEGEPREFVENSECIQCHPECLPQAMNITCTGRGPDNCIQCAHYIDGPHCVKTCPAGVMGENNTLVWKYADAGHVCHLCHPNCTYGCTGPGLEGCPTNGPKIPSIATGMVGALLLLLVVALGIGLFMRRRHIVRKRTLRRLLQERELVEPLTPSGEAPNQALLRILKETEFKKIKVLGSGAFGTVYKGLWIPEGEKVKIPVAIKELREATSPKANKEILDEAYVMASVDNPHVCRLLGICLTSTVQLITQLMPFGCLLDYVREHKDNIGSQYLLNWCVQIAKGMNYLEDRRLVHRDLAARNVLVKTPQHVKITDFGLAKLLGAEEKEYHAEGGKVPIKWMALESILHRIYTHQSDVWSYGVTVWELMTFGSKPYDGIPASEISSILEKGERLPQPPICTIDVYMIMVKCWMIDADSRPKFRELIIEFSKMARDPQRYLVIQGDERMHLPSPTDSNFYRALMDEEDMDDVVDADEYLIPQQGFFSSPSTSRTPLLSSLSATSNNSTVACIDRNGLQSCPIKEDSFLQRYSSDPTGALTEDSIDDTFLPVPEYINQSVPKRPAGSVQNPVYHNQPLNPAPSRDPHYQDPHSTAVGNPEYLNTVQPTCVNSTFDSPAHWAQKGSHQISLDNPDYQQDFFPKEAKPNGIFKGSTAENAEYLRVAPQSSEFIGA
Procedure, shortened: (§4)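 Kinase/substrate pairs in 20 mM HEPES pH 7.5, 10 mM MgCl2, 1 mM EGTA, 0.02% Brij35, 0.02 mg/ml BSA, 0.1 mM Na3VO4, 2 mM DTT, 1% DMSO were preincubated ~20 min with compound. ATP plus 33P-ATP (10 µM final) was added for 120 min at room temperature, and P81 filter binding gave IC50 values.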

NCI-H1975 cells = assay: 5-Day CellTiter Glo (CTG) cell proliferation assay, NCI-H1975; type: cell-based; conditions: Homo sapiens; NCI-H1975 cells (L858R/T790M EGFR), 5-day CTG proliferation, 120 hours; read-out: H1975 IC50
Procedure, shortened: (§5)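 Proliferation of EGFR-driven NSCLC cells was scored as CellTiter-Glo 2.0 luminescence after a 5-day (120 h) incubation with compounds in 9 doses. IC50 values came from the dose-response curves.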

PC-9 cells = assay: 5-Day CellTiter Glo (CTG) cell proliferation assay, PC-9; type: cell-based; conditions: Homo sapiens; PC-9 cells (d746-750 EGFR), 5-day CTG proliferation, 120 hours; read-out: PC-9 IC50
Procedure, shortened: as §5

[4] = target: T2, pEGFR, A431 cells (wildtype EGFR) (Homo sapiens, UniProt P00533); assay: Cellular EGFR phosphorylation assay (LANCE Ultra TR-FRET) in A431 cells; type: cell-based; conditions: 4 hours at 37° C., 40 ng/mL EGF for the final 10 minutes, read-out: A431 pEGFR IC50
T2 construct: pEGFR (Tyr1068) TR-FRET
T2 sequence (P00533 25-1210): as above
Procedure, shortened: as §1

EGFR (L858R) = EGFR (L858R) (Homo sapiens, UniProt P00533, L858R); assay: HotSpot radiometric kinase assay, inhibition of EGFR L858R mutant; type: biochemical; conditions: 33P ATP, room temperature, 120 m
Procedure, shortened: as §4

HCC827 cells = assay: 5-Day CellTiter Glo (CTG) cell proliferation assay, HCC827; type: cell-based; conditions: Homo sapiens; HCC827 cells (d746-750 EGFR), 5-day CTG proliferation, 120 hours; read-out: HCC827 IC50
Procedure, shortened: as §5

[5] = target: T3, pEGFR, PC-9 cells (d746-750 EGFR) (Homo sapiens, UniProt P00533, DEL746-750); assay: Cellular EGFR phosphorylation assay (LANCE Ultra TR-FRET) in PC-9 cells; type: cell-based; conditions: 4 hours at 37° C., read-out: PC-9 pEGFR IC50
T3 construct: pEGFR (Tyr1068) TR-FRET
T3 sequence (P00533 with tags, fused parts or gaps DEL746-750): as the sequence (P00533 with tags, fused parts or gaps DEL746-750) above
Procedure, shortened: as §1

EGFR (D770_N771insNPG) = EGFR (D770_N771insNPG) (Homo sapiens, UniProt P00533, INS770NPG); assay: HotSpot radiometric kinase assay, inhibition of EGFR (D770_N771insNPG) mutant; type: biochemical; conditions: 33P ATP, room temperature, 120 m
Procedure, shortened: as §2

[6] = tested on: BaF3 cells with engineered EGFR L858R/T790M/C797S; assay: 3-Day CellTiter Glo (CTG) cell proliferation assay, BaF3 EGFR L858R/T790M/C797S; type: cell-based; conditions: Mus musculus, 3-day CTG proliferation, 72 hours
Procedure, shortened: as §3

EGFR (L858R/T790M/C797S) = EGFR (L858R/T790M/C797S) (Homo sapiens, UniProt P00533, C797S/L858R/T790M); assay: HotSpot radiometric kinase assay, inhibition of EGFR L858R/T790M/C797S mutant; type: biochemical; conditions: 33P ATP, room temperature, 120 m
Procedure, shortened: as §2

Row | Structure (SMILES) | IC50 [1] | IC50 (EGFR (L858R/T790M)) | IC50 [2] | IC50 [3] | IC50 (EGFR (D746-750/C797S)) | IC50 (EGFR (D746-750)) | IC50 (EGFR WT) | IC50 (NCI-H1975 cells) | IC50 (PC-9 cells) | IC50 [4] | IC50 (EGFR (L858R)) | IC50 (HCC827 cells) | IC50 [5] | IC50 (EGFR (D770_N771insNPG)) | IC50 [6] | IC50 (EGFR (L858R/T790M/C797S))
1 | CCOc1nn([C@@H](C)CO)c2c1/C=C/c1n[nH]c3cnc(cc13)-c1c(C)nn(C)c1OC[C@H](C)N(CC)C2 [Ex. 25, (2S)-2-[(11S,17E)-16-ethoxy-12-ethyl-6,8,11-trimethyl-2,8,10,11,12,13-hexahydro-14H-5,3-(azenometheno)tripyrazolo[3,4-f:3′,4′-j:4″,3″-n][1,4]oxazacyclopentadecin-14-yl]propan-1-ol] | 1.93 nM | 1.39 nM | 0.13 nM | 0.63 nM | 1.02 nM | 0.51 nM | 0.55 nM | 10.3 nM | 2.97 nM | 17.9 nM | 1.88 nM | 0.46 nM | 1.24 nM | 1.23 nM | 0.85 nM | 0.51 nM
2 | CCOc1nn([C@@H](C)CO)c2c1/C=C/c1n[nH]c3cnc(cc13)-c1c(C)nn(C)c1O[C@@H](C)CN(CC)C2 [Ex. 26, (2S)-2-[(10S,17E)-16-ethoxy-12-ethyl-6,8,10-trimethyl-2,8,10,11,12,13-hexahydro-14H-5,3-(azenometheno)tripyrazolo[3,4-f:3′,4′-j:4″,3″-n][1,4]oxazacyclopentadecin-14-yl]propan-1-ol] | 3.4 nM | 1.44 nM | 0.11 nM | 0.66 nM | 1.97 nM | 0.73 nM | 0.8 nM | 1.11 nM | 0.44 nM | 12.2 nM | 2.39 nM | 0.27 nM | 1.6 nM | 0.9 nM | 1.16 nM | 0.93 nM
3 | CCOc1nn([C@@H](C)CO)c2c1/C=C/c1n[nH]c3cnc(cc13)-c1c(C)nn(C)c1O[C@@H](C)CN(C)C2 [Ex. 27, (2S)-2-[(10S,17E)-16-ethoxy-6,8,10,12-tetramethyl-2,8,10,11,12,13-hexahydro-14H-5,3-(azenometheno)tripyrazolo[3,4-f:3′,4′-j:4″,3″-n][1,4]oxazacyclopentadecin-14-yl]propan-1-ol] | 1.85 nM | 0.51 nM | 0.07 nM | 0.55 nM | 0.9 nM | 0.28 nM | 0.31 nM | 0.97 nM | 0.45 nM | 12.5 nM | 0.89 nM | 0.26 nM | 0.91 nM | 0.27 nM | 0.73 nM | 0.45 nM
4 | CCOc1nn(CCO)c2c1/C=C/c1n[nH]c3c(C)nc(cc13)-c1cnn(C)c1O[C@@H](C)CN(CC)C2 [Ex. 28, 2-[(10S,17E)-16-ethoxy-12-ethyl-8,10,20-trimethyl-2,8,10,11,12,13-hexahydro-14H-5,3-(azenometheno)tripyrazolo[3,4-f:3′,4′-j:4″,3″-n][1,4]oxazacyclopentadecin-14-yl]ethan-1-ol] | 3 nM | 0.46 nM | 2.47 nM | 1.16 nM | 0.85 nM | 0.37 nM | 1.03 nM | 33 nM | 16.8 nM | 52.8 nM | 1.99 nM | 2.33 nM | 14.4 nM | 1.23 nM | 1.71 nM | 0.41 nM
5 | CCOc1nn(CCO)c2c1/C=C/c1n[nH]c3c(C)nc(cc13)-c1cnn(C)c1O[C@@H](C)CN(C)C2 [Ex. 29, 2-[(10S,17E)-16-ethoxy-8,10,12,20-tetramethyl-2,8,10,11,12,13-hexahydro-14H-5,3-(azenometheno)tripyrazolo[3,4-f:3′,4′-j:4″,3″-30n][1,4]oxazacyclopentadecin-14-yl]ethan-1-ol] | 0.93 nM | 0.3 nM | 0.17 nM | 0.9 nM | 0.65 nM | 0.2 nM | 0.22 nM | 1.04 nM | 11.4 nM | 13.7 nM | 0.72 nM | 1.12 nM | 3.63 nM | 0.29 nM | 0.74 nM | 0.3 nM
6 | CCOc1nn(CCO)c2c1/C=C/c1n[nH]c3c(C)nc(cc13)-c1c(C)nn(C)c1O[C@@H](C)CN(C)C2 [Ex. 47, 2-[(10S,17E)-16-ethoxy-6,8,10,12,20-pentamethyl-2,8,10,11,12,13-hexahydro-14H-5,3-(azenometheno)tripyrazolo[3,4-f:3′,4′-j:4″,3″-n][1,4]oxazacyclopentadecin-14-yl]ethan-1-ol] | 1.06 nM | 0.32 nM | 0.07 nM | 1.5 nM | 0.27 nM | 0.43 nM | 0.18 nM | 1.77 nM | 1.8 nM | 15.2 nM | 0.2 nM | 0.57 nM | 1.13 nM | 0.2 nM | 0.62 nM | 0.28 nM
